Data from patent publication US10077261B2, “Imidazolin-5-one derivative useful as FASN inhibitors for the treatment of cancer” (Janssen Pharmaceutica NV, priority 2012, dated 2018).

Target: T1, hFASN enzyme (full length) (Homo sapiens, UniProt P49327)
T1 construct: 10 μL hFASN enzyme (full length, 300 ng, purified in house); made in house
Test: Fatty Acid Synthase (FASN) inhibition scintillation proximity assay
Type: biochemical
Details: for inhibition at 10 µM: read-out: Human FASN % inhibition @ 10 μM, 10 μM test compound; for IC50: read-out: Human FASN pIC50 (converted)
How it was run: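 Purified full-length hFASN (300 ng) converts ^3H-acetyl-CoA plus malonyl-CoA to ^3H-palmitate in 100 mM KH2PO4 pH 7.5, 1 mM DTT; compounds tested at 0.01–30 μM. Product captured on streptavidin imaging beads and read by LEADseeker at 610 nm after ≥24 h; 4-parameter logistic fit versus controls.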

T1 sequence (P49327 whole entry): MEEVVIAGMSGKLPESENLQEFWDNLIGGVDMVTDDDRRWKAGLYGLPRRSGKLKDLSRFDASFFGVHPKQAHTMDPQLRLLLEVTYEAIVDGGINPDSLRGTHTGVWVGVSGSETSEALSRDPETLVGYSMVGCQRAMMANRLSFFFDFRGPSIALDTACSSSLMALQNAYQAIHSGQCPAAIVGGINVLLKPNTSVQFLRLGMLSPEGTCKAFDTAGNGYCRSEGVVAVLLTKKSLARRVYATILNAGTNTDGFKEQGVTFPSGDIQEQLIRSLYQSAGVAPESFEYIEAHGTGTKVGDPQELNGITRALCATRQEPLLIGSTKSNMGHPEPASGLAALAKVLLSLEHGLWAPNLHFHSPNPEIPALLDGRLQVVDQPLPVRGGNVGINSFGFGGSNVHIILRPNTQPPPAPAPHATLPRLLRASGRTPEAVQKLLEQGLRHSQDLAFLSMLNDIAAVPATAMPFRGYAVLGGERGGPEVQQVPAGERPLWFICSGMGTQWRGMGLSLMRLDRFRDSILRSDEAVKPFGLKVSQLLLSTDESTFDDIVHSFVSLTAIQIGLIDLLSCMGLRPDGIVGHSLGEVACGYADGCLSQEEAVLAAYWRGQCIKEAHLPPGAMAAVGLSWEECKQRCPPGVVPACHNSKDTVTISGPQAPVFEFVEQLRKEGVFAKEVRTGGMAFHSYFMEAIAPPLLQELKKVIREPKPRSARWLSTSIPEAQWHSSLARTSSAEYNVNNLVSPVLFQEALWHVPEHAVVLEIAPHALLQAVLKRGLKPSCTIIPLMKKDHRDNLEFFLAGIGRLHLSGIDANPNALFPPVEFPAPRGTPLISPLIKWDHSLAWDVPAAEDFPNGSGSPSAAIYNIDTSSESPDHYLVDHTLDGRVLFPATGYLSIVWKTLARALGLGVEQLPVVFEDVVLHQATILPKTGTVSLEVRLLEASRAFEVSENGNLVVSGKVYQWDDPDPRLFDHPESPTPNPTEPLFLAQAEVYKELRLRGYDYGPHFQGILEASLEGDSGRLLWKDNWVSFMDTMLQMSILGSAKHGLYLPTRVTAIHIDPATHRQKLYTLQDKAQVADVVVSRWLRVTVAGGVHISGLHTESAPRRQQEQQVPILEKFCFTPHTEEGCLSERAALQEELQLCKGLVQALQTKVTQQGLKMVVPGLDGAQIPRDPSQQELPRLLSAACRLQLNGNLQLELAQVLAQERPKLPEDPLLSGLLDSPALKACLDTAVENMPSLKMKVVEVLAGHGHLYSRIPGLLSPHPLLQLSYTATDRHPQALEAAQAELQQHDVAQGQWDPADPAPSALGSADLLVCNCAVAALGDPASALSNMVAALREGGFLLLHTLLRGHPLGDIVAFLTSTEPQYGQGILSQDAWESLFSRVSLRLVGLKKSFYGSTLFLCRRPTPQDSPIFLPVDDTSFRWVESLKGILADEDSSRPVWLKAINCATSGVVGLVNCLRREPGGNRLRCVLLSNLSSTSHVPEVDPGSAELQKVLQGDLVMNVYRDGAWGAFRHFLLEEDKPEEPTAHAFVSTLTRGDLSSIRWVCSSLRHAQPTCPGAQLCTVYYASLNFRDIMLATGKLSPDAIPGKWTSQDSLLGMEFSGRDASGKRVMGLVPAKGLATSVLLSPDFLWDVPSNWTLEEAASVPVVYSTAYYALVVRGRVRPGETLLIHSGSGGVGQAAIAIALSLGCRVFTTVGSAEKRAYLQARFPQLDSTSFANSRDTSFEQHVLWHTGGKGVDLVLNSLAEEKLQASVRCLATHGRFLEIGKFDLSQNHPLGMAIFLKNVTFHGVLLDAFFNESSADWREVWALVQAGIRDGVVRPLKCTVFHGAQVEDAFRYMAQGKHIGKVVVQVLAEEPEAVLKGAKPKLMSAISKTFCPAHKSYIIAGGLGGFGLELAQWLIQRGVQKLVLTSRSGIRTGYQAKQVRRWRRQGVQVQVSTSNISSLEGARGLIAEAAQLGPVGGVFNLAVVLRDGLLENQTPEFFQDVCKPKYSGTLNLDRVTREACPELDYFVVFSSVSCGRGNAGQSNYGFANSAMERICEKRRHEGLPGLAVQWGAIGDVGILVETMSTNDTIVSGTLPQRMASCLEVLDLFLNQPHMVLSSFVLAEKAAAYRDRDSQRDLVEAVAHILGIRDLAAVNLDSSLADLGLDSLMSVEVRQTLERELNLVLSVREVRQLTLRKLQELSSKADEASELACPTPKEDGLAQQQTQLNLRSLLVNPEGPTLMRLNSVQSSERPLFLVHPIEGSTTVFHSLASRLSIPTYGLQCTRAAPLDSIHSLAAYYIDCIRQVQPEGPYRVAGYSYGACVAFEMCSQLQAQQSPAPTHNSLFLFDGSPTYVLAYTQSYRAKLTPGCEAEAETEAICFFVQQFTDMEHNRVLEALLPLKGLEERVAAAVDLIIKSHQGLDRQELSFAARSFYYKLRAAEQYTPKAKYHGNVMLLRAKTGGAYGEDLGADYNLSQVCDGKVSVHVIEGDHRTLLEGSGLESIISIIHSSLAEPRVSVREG

Row | inhibition at 10 µM [%] | IC50 [µM] | Structure (SMILES)
1 | 76 | 2.24 | Cn1cc(-c2ccc(-c3ccc(C4=NC5(CCOCC5)C(=O)N4C[C@@H]4CCN(C(=O)N5CCCC5)C4)cc3)cc2)cn1 [compound 660, 2-[4′-(1-Methyl-1H-pyrazol-4-yl)biphenyl-4-yl]-3-{[(3S)-1-(pyrrolidin-1-ylcarbonyl)pyrrolidin-3-yl]methyl}-8-oxa-1,3-diazaspiro[4.5]dec-1-en-4-one]
2 | 62 | ~5.01 | O=C(c1nccs1)N1CC[C@@H](CN2C(=O)C3(CCOCC3)N=C2c2ccc(-c3ccc4cccnc4c3)cc2)C1 [compound 666, 2-(4-Quinolin-7-ylphenyl)-3-{[(3R)-1-(1,3-thiazol-2-ylcarbonyl)pyrrolidin-3-yl]methyl}-8-oxa-1,3-diazaspiro[4.5]dec-1-en-4-one]
3 | 86 | 1.17 | CC(O)C(=O)N1CC[C@@H](CN2C(=O)C3(CCOCC3)N=C2c2ccc(-c3ccc4occc4c3)cc2)C1 (stereo partly drawn) [compound 668, 2-[4-(1-Benzofuran-5-yl)phenyl]-3-{[(3R)-1-(2-hydroxypropanoyl)pyrrolidin-3-yl]methyl}-8-oxa-1,3-diazaspiro[4.5]dec-1-en-4-one]
4 | 56 | ~7.59 | O=C(N1CC[C@@H](CN2C(=O)C3(CCOCC3)N=C2c2ccc(-c3ccc4occc4c3)cc2)C1)C(F)(F)F [compound 670, 2-[4-(1-Benzofuran-5-yl)phenyl]-3-{[(3R)-1-(trifluoroacetyl)pyrrolidin-3-yl]methyl}-8-oxa-1,3-diazaspiro[4.5]dec-1-en-4-one]
5 | 76 | 1.66 | O=C(N1CCCC1)N1CC[C@@H](CN2C(=O)C3(CCOCC3)N=C2c2ccc(-c3ccc4occc4c3)cc2)C1 [compound 671, 2-[4-(1-Benzofuran-5-yl)phenyl]-3-{[(3S)-1-(pyrrolidin-1-ylcarbonyl)pyrrolidin-3-yl]methyl}-8-oxa-1,3-diazaspiro[4.5]dec-1-en-4-one]
6 | 61 | 5.5 | CC(O)C(=O)N1CC[C@@H](CN2C(=O)C3(CCOCC3)N=C2c2ccc(-c3ccc4c(cnn4C)c3)cc2)C1 (stereo partly drawn) [compound 673, 3-{[(3R)-1-(2-Hycdroxypropanoyl)pyrrolidin-3-yl]methyl}-2-[4-(1-methyl-1H-indazol-5-yl)phenyl]-8-oxa-1,3-diazaspiro[4.5]dec-1-en-4-one]
7 | 66 | 2.82 | Cn1ncc2cc(-c3ccc(C4=NC5(CCOCC5)C(=O)N4C[C@@H]4CCN(C(=O)N5CCCC5)C4)cc3)ccc21 [compound 675]
8 | 63 | ~7.08 | CC(O)C(=O)N1CC[C@@H](CN2C(=O)C3(CCOC3)N=C2c2ccc(-c3ccc(-c4cnn(C)c4)cc3)cc2)C1 (stereo partly drawn) [compound 677, 3-{[(3R)-1-(2-Hydroxypropanoyl)pyrrolidin-3-yl]methyl}-2-[4′-(1-methyl-1H-pyrazol-4-yl)biphenyl-4-yl]-7-oxa-1,3-diazaspiro[4.4]non-1-en-4-one]
9 | 57 | ~6.17 | Cn1cc(-c2ccc(-c3ccc(C4=NC5(CCOC5)C(=O)N4C[C@@H]4CCN(C(=O)N5CCCC5)C4)cc3)cc2)cn1 (stereo partly drawn) [compound 679, 2-[4′-(1-Methyl-1H-pyrazol-4-yl)biphenyl-4-yl]-3-{[(3S)-1-(pyrrolidin-1-ylcarbonyl)pyrrolidin-3-yl]methyl}-7-oxa-1,3-diazaspiro[4.4]non-1-en-4-one]
10 | 61 | 4.27 | O=C(N1CC[C@@H](CN2C(=O)C3(CCOC3)N=C2c2ccc(-c3ccc4cccnc4c3)cc2)C1)C(F)(F)F (stereo partly drawn) [compound 684, 2-(4-Quinolin-7-ylphenyl)-3-{[(3R)-1-(trifluoroacetyl)pyrrolidin-3-yl]methyl}-7-oxa-1,3-diazaspiro[4.4]non-1-en-4-one]
11 | 73 | 2.88 | CC(O)C(=O)N1CC[C@@H](CN2C(=O)C3(CCOC3)N=C2c2ccc(-c3ccc4occc4c3)cc2)C1 (stereo partly drawn) [compound 687, 2-[4-(1-Benzofuran-5-yl)phenyl]-3-{[(3R)-1-(2-hydroxypropanoyl)pyrrolidin-3-yl]methyl}-7-oxa-1,3-diazaspiro[4.4]non-1-en-4-one]
12 | 61 | 4.07 | O=C(N1CCCC1)N1CC[C@@H](CN2C(=O)C3(CCOC3)N=C2c2ccc(-c3ccc4occc4c3)cc2)C1 (stereo partly drawn) [compound 689, 2-[4-(1-Benzofuran-5-yl)phenyl]-3-{[(3S)-1-(pyrrolidin-1-ylcarbonyl)pyrrolidin-3-yl]methyl}-7-oxa-1,3-diazaspiro[4.4]non-1-en-4-one]
13 | 63 | ~7.41 | CC(O)C(=O)N1CC[C@@H](CN2C(=O)C3(CCOC3)N=C2c2ccc(-c3ccc4c(cnn4C)c3)cc2)C1 (stereo partly drawn) [compound 691, 3-{[(3R)-1-(2-Hydroxypropanoyl)pyrrolidin-3-yl]methyl}-2-[4-(1-methyl-1H-indazol-5-yl)phenyl]-7-oxa-1,3-diazaspiro[4.4]non-1-en-4-one]
14 | 48 | 9.77 | Cn1ncc2cc(-c3ccc(C4=NC5(CCOC5)C(=O)N4C[C@@H]4CCN(C(=O)N5CCCC5)C4)cc3)ccc21 (stereo partly drawn) [compound 693, 2-[4-(1-Methyl-1H-indazol-5-yl)phenyl]-3-{[(3S)-1-(pyrrolidin-1-ylcarbonyl)pyrrolidin-3-yl]methyl}-7-oxa-1,3-diazaspiro[4.4]non-1-en-4-one]
15 | 69 | 2.45 | Cn1cc(-c2ccc(-c3ccc(C4=NC5(CCOCC5)C(=O)N4CC4CN(C(=O)C5CC5)C4)cc3)cc2)cn1 [compound 694, 3-{[1-(Cyclopropylcarbonyl)azetidin-3-yl]methyl}-2-[4-(1-methyl-1H-pyrazol-4-yl)biphenyl-4-yl]-8-oxa-1,3-diazaspiro[4.5]dec-1-en-4-one]
16 | 43 | 5.89 | CC(O)C(=O)N1CC(CN2C(=O)C3(CCOCC3)N=C2c2ccc(-c3ccc(-c4cnn(C)c4)cc3)cc2)C1 (stereo not shown) [compound 695, 3-{[1-(2-Hydroxypropanoyl)azetidin-3-yl]methyl}-2-[4′-(1-methyl-1H-pyrazol-4-yl)biphenyl-4-yl]-8-oxa-1,3-diazaspiro[4.5]dec-1-en-4-one]
17 | 72 | 1.7 | Cn1cc(-c2ccc(-c3ccc(C4=NC5(CCOCC5)C(=O)N4CC4CN(C(=O)[C@H]5CCCO5)C4)cc3)cc2)cn1 [compound 696, 2-[4′-(1-Mehtyl-1H-pyrazol-4-yl)biphenyl-4-yl]-3-({1-[(2R)-tetrahydro-furan-2-ylcarbonyl]azetidin-3-yl}methyl)-8-oxa-1,3-diazaspiro[4.5]dec-1-en-4-one]
18 | 58 | 5.89 | Cn1cc(-c2ccc(-c3ccc(C4=NC5(CCOCC5)C(=O)N4CC4CN(C(=O)N5CCCC5)C4)cc3)cc2)cn1 [compound 697, 2-[4′-(1-Methyl-1H-pyrazol-4-yl)biphenyl-4-yl]-3-{[1-(pyrrolidin-1-ylcarbonyl)azetidin-3-yl]methyl}-8-oxa-1,3-diazaspiro[4.5]dec-1-en-4-one]
19 | 75 | ~2.63 | O=C(C1CC1)N1CC(CN2C(=O)C3(CCOCC3)N=C2c2ccc(-c3ccc4occc4c3)cc2)C1 [compound 702, 2-[4-(1-Benzofuran-5-yl)phenyl]-3-{[1-(cyclopropylcarbonyl)azetidin-3-yl]methyl}-8-oxa-1,3-diazaspiro[4.5]dec-1-en-4-one]
20 | 61 | 4.47 | CC(O)C(=O)N1CC(CN2C(=O)C3(CCOCC3)N=C2c2ccc(-c3ccc4occc4c3)cc2)C1 (stereo not shown) [compound 703, 2-[4-(1-Benzofuran-5-yl)phenyl]-3-{[1-(2-hydroxypropanoyl)azetidin-3-yl]methyl}-8-oxa-1,3-diazaspiro[4.5]dec-1-en-4-one]
21 | 71 | 2.69 | O=C(N1CCCC1)N1CC(CN2C(=O)C3(CCOCC3)N=C2c2ccc(-c3ccc4occc4c3)cc2)C1 [compound 705, 2-[4-(1-Benzofuran-5-yl)phenyl]-3-{[1-(pyrrolidin-1-ylcarbonyl)azetidin-3-yl]methyl}-8-oxa-1,3-diazaspiro[4.5]dec-1-en-4-one]
22 | 65 | ~2.34 | Cn1ncc2cc(-c3ccc(C4=NC5(CCOCC5)C(=O)N4CC4CN(C(=O)C5CC5)C4)cc3)ccc21 [compound 706, 3-{[1-(Cyclopropylcarbonyl)azetidin-3-yl]methyl}-2-[4-(1-methyl-1H-indazol-5-yl)phenyl]-8-oxa-1,3-diazaspiro[4.5]dec-1-en-4-one]
23 | 55 | 6.46 | CC(O)C(=O)N1CC(CN2C(=O)C3(CCOCC3)N=C2c2ccc(-c3ccc4c(cnn4C)c3)cc2)C1 (stereo not shown) [compound 707, 3-{[1-(2-Hydroxypropanoyl)azetidin-3-yl]methyl}-2-[4-(1-methyl-1H-indazol-5-yl)phenyl]-8-oxa-1,3-diazaspiro[4.5]dec-1-en-4-one]
24 | 76 | 1.86 | Cn1ncc2cc(-c3ccc(C4=NC5(CCOCC5)C(=O)N4CC4CN(C(=O)[C@H]5CCCO5)C4)cc3)ccc21 [compound 708, 2-[4-(1-Methyl-1H-indazol-5-yl)phenyl]-3-({1-[(2R)-tetrahydro-furan-2-ylcarbonyl]azetidin-3-yl}methyl)-8-oxa-1,3-diazaspiro[4.5]dec-1-en-4-one]
25 | 64 | 4.07 | Cn1ncc2cc(-c3ccc(C4=NC5(CCOCC5)C(=O)N4CC4CN(C(=O)N5CCCC5)C4)cc3)ccc21 [compound 709, 2-[4-(1-Methyl-1H-indazol-5-yl)phenyl]-3-{[1-(pyrrolidin-1-ylcarbonyl)azetidin-3-yl]methyl}-8-oxa-1,3-diazaspiro[4.5]dec-1-en-4-one]
26 | 66 | 2.82 | Cn1cc(-c2ccc(-c3ccc(C4=NC5(CCOC5)C(=O)N4CC4CN(C(=O)C5CC5)C4)cc3)cc2)cn1 (stereo not shown) [compound 710, 3-{[1-(Cyclopropylcarbonyl)azetidin-3-yl]methyl}-2-[4′-(1-methyl-1H-pyrazol-4-yl)biphenyl-4-yl]-7-oxa-1,3-diazaspiro[4.4]non-1-en-4-one]
